Measured values from patent US20240299484A1, “DILEUCINE COMPOSITIONS AND METHODS OF USE THEREOF” (Ingenious Ingredients, LP, priority 2023, published 2024).
Marks after values point to notes of the source that are not given here.

test system: not listed separately; experiment: Treadmill exercise / endurance test; assay type: in vivo, Swiss Albino mice; set-up: Percentage Increase over control (number of shocks) / Percentage Increase over control (time on shock zone) / Percentage Increase over control (distance travelled): concentration or dose not given beside the values; settings: Day −0 (baseline), mice, n = 8
Protocol: (§1) Eight 8-week-old male Swiss Albino mice per experimental group were housed in an animal room at a constant temperature (22±3° C.) and humidity (30%-70%) under a 12:12 h light-dark cycle with standard laboratory diet (Purina 5L79, Rat and Mouse 18% protein; PMI Nutrition International, Brentwood, MO, USA). Distilled water was provided ad libitum. All animal experiments were reviewed and approved by the Institutional Animal Ethical Committee (IAEC) of Radiant Research Services Pvt. Ltd (Bangalore, India). All research was conducted in accordance with the guidelines of the committee for the purpose of control and supervision of experiments on animals (CPCSEA Registration Number-1803/PO/RcBi/S/2015/CPCSEA).
(§2) After one week of acclimation, the animals were randomly divided by body weight into different groups (n=8 per group in each test) for oral treatment once a day, at approximately same time each day (+1 hour), for 28 consecutive days: (1) vehicle control; (2) paraxanthine (3) dileucine; (4) paraxanthine+dileucine; (5) L-arginine; (6) L-arginine+dileucine; (7) L-citrulline; and (8) L-citrulline+dileucine. The dose administered to the mice was calculated using US Food and Drug Administration for human equivalence doses (HED), assuming a human weight of 60 kg. The following HED were used in this study: 2,000 mg dileucine (RAMPS™, Ingenious Ingredients, L.P., Lewisville, TX, USA; mouse 411 mg/kg bw), 100 mg paraxanthine, (ENFINITY™, Ingenious Ingredients, L.P Lewisville, TX, USA; mouse dose: 20.5 mg/kg bw/day); 3,000 mg L-arginine (Nanjing Nutrabuilding Bio-tech Co., LTD., No. 270 Jiqingmen Strect, Suning Huigu, Building E6, Room 2105, Nanjing, China 210017; mouse 616.55 mg/kg bw), 3,000 mg L-citrulline (Nanjing Nutrabuilding Bio-tech Co., LTD., No. 270 Jiqingmen Street, Suning Huigu, Building E6, Room 2105, Nanjing, China 210017; mouse 616.55 mg/kg bw). 0.5% Carboxy Methyl Cellulose sodium was used as vehicle and the test item formulations were prepared daily. Dosing was conducted via oral gavage using disposable polypropylene syringes with sterilized stainless steel gavage tubes. The food intake and water consumption were monitored daily, and BW was recorded weekly. The last dose on day 28 was given 1 hour prior to testing.
During the treatment period, exercise training was completed using a motorized treadmill (Exer 3/6, Columbus Instruments international, OH, USA) at a moderate intensity of 20 cm/sec as maximal running speed, an incline of ten degrees and a shock intensity of 0.2 mA, for ten minutes. The speed of the treadmill was manually adjusted by increasing the belt speed by 5 cm/sec every two minutes throughout the total duration of ten minutes. All animals were adapted to this procedure daily 60 minutes after dosing for five days in a week during the treatment period.
On 28th day of each respective treatment, all animals were subjected to a muscle endurance test. Muscle endurance was accomplished on a motorized treadmill at a low to moderate intensity of 5-50 cm/sec as maximal running speed, an incline of ten degrees and a shock intensity of 0.2 mA, with the belt speed being increased by 5 cm/sec every two minutes until it reaches 50 cm/sec. Animals were subjected to the treadmill test until exhaustion. Distance traveled (m) was measured as a marker of exercise performance.

Compound | Distance travelled (m) by mice during treadmill exercise Day −0 | No. of shocks during treadmill exercise Day −0 | Time spent on shock zone during excercise [sec] Day −0
NC(=O)NCCC[C@H](N)C(=O)O [L-Citrulline, L-citrulline] | 38.5 m | 28.63 | 90.88 s
Cn1c(=O)[nH]c2ncn(C)c2c1=O [Paraxanthine, 1,7-dimethylxanthine] | 41.13 m | 26.5 | 90.75 s

same assay, conditions: Day −28, oral once a day for 28 days

Compound | No. of shocks during treadmill exercise Day −28 | Time spent on shock zone during excercise [sec] Day −28
NC(=O)NCCC[C@H](N)C(=O)O [L-Citrulline, L-citrulline] | 17.00*** | 36.63*** sec
Cn1c(=O)[nH]c2ncn(C)c2c1=O [Paraxanthine, 1,7-dimethylxanthine] | 13.38*** | 32.25*** sec

same assay, conditions: Day −28, until exhaustion, oral once a day for 28 days

Compound | Distance travelled (m) by mice during treadmill exercise Day −28
NC(=O)NCCC[C@H](N)C(=O)O [L-Citrulline, L-citrulline] | 312*** m
Cn1c(=O)[nH]c2ncn(C)c2c1=O [Paraxanthine, 1,7-dimethylxanthine] | 325.75*** m

same assay, conditions: Day −28 minus Day −0

Compound | Distance Increase over Day −0 | No of Shocks Decrease over Day −0 | Time spent on shock zone over Day −0
NC(=O)NCCC[C@H](N)C(=O)O [L-Citrulline, L-citrulline] | 273.5 m | −11.63 | -54.25 s
Cn1c(=O)[nH]c2ncn(C)c2c1=O [Paraxanthine, 1,7-dimethylxanthine] | 284.62 m | −13.12 | -58.5 s

same assay, conditions: change vs Exercise Control, 28 days

Compound | Percentage Increase over control (time on shock zone)
NC(=O)NCCC[C@H](N)C(=O)O [L-Citrulline, L-citrulline] | 78%
Cn1c(=O)[nH]c2ncn(C)c2c1=O [Paraxanthine, 1,7-dimethylxanthine] | 92%

same assay, conditions: decrease in shocks vs Exercise Control, 28 days

Compound | Percentage Increase over control (number of shocks)
NC(=O)NCCC[C@H](N)C(=O)O [L-Citrulline, L-citrulline] | 48%
Cn1c(=O)[nH]c2ncn(C)c2c1=O [Paraxanthine, 1,7-dimethylxanthine] | 67%

same assay, conditions: increase vs Exercise Control, 28 days

Compound | Percentage Increase over control (distance travelled)
NC(=O)NCCC[C@H](N)C(=O)O [L-Citrulline, L-citrulline] | 97%
Cn1c(=O)[nH]c2ncn(C)c2c1=O [Paraxanthine, 1,7-dimethylxanthine] | 105%

test system: total cholesterol (TC); experiment: Blood lipids: total cholesterol; assay type: in vivo, Swiss Albino mice; settings: after 28 days of supplementation, mice, n = 8
Protocol: as §1, §2
(§3) All animals were euthanized by 95% CO2 after 28 days of following their assigned treatment. Blood was collected immediately after euthanization by the retro-orbital route and was immediately centrifuged at 1500×g for 10 min at 4° C. before having all serum transferred into cryogenic tubes and stored at −80° C.
(§4) Serum and plasma samples were separated by centrifuging the blood at 8000 rpm for 10 mins and analyze the below mentioned biomarkers, Biomarkers: TC, TG, LDL and HDL, CRP, Serum lactate, Ammonia, Glucose, NO, IL-2, IL-6, IL-10. Blood was collected in EDTA tubes for below mentioned biomarkers, Immune health Biomarkers (T helper subsets): TH1, TH2, TH17, Tfh, iTreg.

Compound | TC [mg/dl]
NC(=O)NCCC[C@H](N)C(=O)O [L-Citrulline, L-citrulline] | 94.26* mg/dl
Cn1c(=O)[nH]c2ncn(C)c2c1=O [Paraxanthine, 1,7-dimethylxanthine] | 91.66** mg/dl

same assay, conditions: vs Exercise Control, 28 days

Compound | TC Change over control [%]
NC(=O)NCCC[C@H](N)C(=O)O [L-Citrulline, L-citrulline] | −6%
Cn1c(=O)[nH]c2ncn(C)c2c1=O [Paraxanthine, 1,7-dimethylxanthine] | −8%

test system: triglycerides (TG); experiment: Blood lipids: triglycerides; assay type: in vivo, Swiss Albino mice; settings: after 28 days of supplementation, mice, n = 8
Protocol: as §1, §2, §3, §4

Compound | TG
NC(=O)NCCC[C@H](N)C(=O)O [L-Citrulline, L-citrulline] | 94.58 mg/dL
Cn1c(=O)[nH]c2ncn(C)c2c1=O [Paraxanthine, 1,7-dimethylxanthine] | 91.94 mg/dL

same assay, conditions: vs Exercise Control, 28 days

Compound | TG Change over control [%]
NC(=O)NCCC[C@H](N)C(=O)O [L-Citrulline, L-citrulline] | −2%
Cn1c(=O)[nH]c2ncn(C)c2c1=O [Paraxanthine, 1,7-dimethylxanthine] | −4%

test system: TH1; experiment: Immune health biomarkers (T helper subsets): TH1; assay type: in vivo, Swiss Albino mice; settings: T helper subset in blood after 28 days, mice, n = 8
Protocol: PMI Nutrition International, Brentwood, MO, USA). Distilled water was provided ad libitum. All animal experiments were reviewed and approved by the Institutional Animal Ethical Committee (IAEC) of Radiant Research Services Pvt. Ltd (Bangalore, India). All research was conducted in accordance with the guidelines of the committee for the purpose of control and supervision of experiments on animals (CPCSEA Registration Number-1803/PO/[…]). […] (1) vehicle control; […] (4) paraxanthine+dileucine; […] The dose administered to the mice was calculated using US Food and Drug Administration for human equivalence doses (HED), assuming a human weight of 60 kg. […] Dosing was conducted via oral gavage using disposable polypropylene syringes with sterilized stainless steel gavage tubes. The food intake and water consumption were monitored daily, and BW was recorded weekly. The last dose on day 28 was given 1 hour prior to testing. Serum and plasma samples were separated by centrifuging the blood at 8000 rpm for 10 mins and analyze the below mentioned biomarkers, Biomarkers: TC, TG, LDL and HDL, CRP, Serum lactate, Ammonia, Glucose, NO, IL-2, IL-6, IL-10. Blood was collected in EDTA tubes for below mentioned biomarkers, Immune health Biomarkers (T helper subsets): […]

Compound | TH1(%)
NC(=O)NCCC[C@H](N)C(=O)O [L-Citrulline, L-citrulline] | 59.71*** %
Cn1c(=O)[nH]c2ncn(C)c2c1=O [Paraxanthine, 1,7-dimethylxanthine] | 65.68*** %

same assay, conditions: vs Exercise Control, 28 days

Compound | TH1 Change over control [%]
NC(=O)NCCC[C@H](N)C(=O)O [L-Citrulline, L-citrulline] | −36%
Cn1c(=O)[nH]c2ncn(C)c2c1=O [Paraxanthine, 1,7-dimethylxanthine] | −30%

test system: iTreg; experiment: Immune health biomarkers (T helper subsets): iTreg; assay type: in vivo, Swiss Albino mice; settings: T helper subset in blood after 28 days, mice, n = 8
Protocol: as §1, §2, §4

Compound | iTreg(%) | iTreg(%) (mg/L)
NC(=O)NCCC[C@H](N)C(=O)O [L-Citrulline, L-citrulline] | 38.83*** % | –
Cn1c(=O)[nH]c2ncn(C)c2c1=O [Paraxanthine, 1,7-dimethylxanthine] | – | 23.68*** %

same assay, conditions: vs Exercise Control, 28 days

Compound | iTreg Change over control [%]
NC(=O)NCCC[C@H](N)C(=O)O [L-Citrulline, L-citrulline] | −29%
Cn1c(=O)[nH]c2ncn(C)c2c1=O [Paraxanthine, 1,7-dimethylxanthine] | −57%
